The values that follow come from patent US20240254134A1, “AGELASTATIN A DERIVATIVES AND RELATED METHODS” (ROMO, Daniel, priority 2021, published 2024).

Data set [1] in a line: Stability of 7-hydroxy AglA derivatives (1H NMR). Type of data set: physicochemical.
Data set [2] concerns HeLa cells. Conditions: cited from earlier work.
Data set [3] is described as follows: Cancer cell line cytotoxicity assay (MTS or resazurin, 72 h). The data set is classed as cell-based. Conditions: human. As for the experimental part:
(§1) Cancer Cell Line Cytotoxicity Assays Cancer cell lines (MDA-MB-231, MCF7, Caco2, or U87) were plated on 96-well plates at 2,000 cells per well and incubated for 24 h at 37° C., 5% CO2. AglA and derivatives were dissolved in DMSO, diluted to the appropriate concentrations, and the compound solutions or equivalent concentration of solvent (vehicle) were added to the plate and incubated for 72 h at 37° C., 5% CO2. Following the manufacturer protocol, 20 μL of CellTiter 96® AQueous One Solution Cell Proliferation Assay (MTS, Promega), or CellTiter-Blue@ Cell Viability Assay (resazurin, Promega) was added. The plate was allowed to develop for 1-4 h at 37° C., 5% CO2 and evaluated at 490 nm on an AccuSkan Go (Fisher Scientific) or at 560 nm excitation and 590 nm emission on a VarioSkan Lux Multimode Microplate Reader (Fisher Scientific).

Data set [4] is described as follows: Stability studies of pyrrole-derived carbinolamines 18a-18c (1H NMR). The note with it: in CD3OD. The data set is classed as physicochemical. As for the experimental part: We synthesized pyrrole carboxylic amides 17a-c to study the equilibrium between the corresponding carbinolamines and pyrrolo ketones (FIG. 5). Reduction of 2-azidocyclopentanone and condensation with pyrrole-1H-carboxylic acid gave amide 17b. Upon treatment of ketone 17b with Et3N, cyclization gave the corresponding carbinolamine 18b in 73% yield (>19:1 dr, 600 MHz ^1H NMR). […] When resubjected to NEt3/CH2Cl2 at ambient temperature (22° C.) for 16 h, only a small amount of the ring-opened keto pyrrole 17b was generated leading to an equilibrium ratio of 11:1 (18b/17b) favoring the cyclized form as judged by ^1H NMR. […] In contrast, the 5-bromo pyrrole analog 17a, that most closely mimics the targeted 7-hydroxy AglA, disfavored the closed form 18a.
To a stirred solution of carbinolamine 18b (3.0 mg, 0.016 mmol, 1.0 equiv) in dichloromethane (0.32 mL) was added triethylamine (6.6 μl, 0.047 mmol, 3.0 equiv).
To a stirred solution of carbinolamine 18c (1.2 mg, 0.0044 mmol, 1.0 equiv) was added a solution of triethylamine in dichloromethane (0.1 mL, the solution was made by mixing 19 μl triethylamine and 1.0 mL dichloromethane).
To a 1.0 dram vial was charged 17a (2.7 mg, 0.01 mmol, 1.0 equiv) and a solution of triethylamine in dichloromethane (0.23 mL, […], 3.0 equiv. The solution was made by mixing 19 μl triethylamine and 1.0 mL dichloromethane).
In a 1.5 dram vial, carbinolamine 18b (2.6 mg, 0.014 mmol, 1.0 equiv) was dissolved in THF (0.14 mL) and MeOH (0.14 mL) and the mixture was cooled to 0° C. N-bromosuccinamide (2.5 mg, 0.0142 mmol, 1.05 equiv) was added and the reaction was allowed to warm up to ambient temperature (22° C.). After stirring for 4 h, TLC indicated there was no more starting material and the reaction mixture was concentrated and purified by column chromatography on silica (MeOH/CH2Cl2, 0 to 20%) to give a mixture of 18a/18c/17a (2.4 mg, 65%) in 1:0.6:0.44 ratio. This mixture was monitored by NMR to probe the stability of the 5-bromo derivative in CD3OD. […]

The test system of data set [5] is MDA-MB-231. Kind of data set: Cancer cell line cytotoxicity assay (MTS or resazurin, 72 h). The note with it: MDA-MB-231, 72 h incubation. The data set is classed as cell-based. As for the experimental part: as §1
A general note: Resazurin is reduced to fluorescent resorufin, in cell work by metabolically active cells.

For data set [6], the system named is U87. The description is as above. Type of data set: cell-based. The note with it: glioblastoma cell line U87, 72 h incubation. As for the experimental part: as §1
Data set [7] concerns MCF7. The description is as above. Type of data set: cell-based. The note with it: MCF7, 72 h incubation. As for the experimental part:
as §1

Data set [8] relates to Caco2. Described as above. The note with it: Caco2, 72 h incubation. Type of data set: cell-based. As for the experimental part: as §1
The test system of data set [9] is Cancer cell lines (MDA-MB-231, MCF7, Caco2, or U87). In words: Cancer cell line cytotoxicity, span over all cell lines studied. Conditions: Homo sapiens; all cell lines studied except Caco-2; read-out: activity against all cell lines studied (span of values). Type of data set: cell-based. As for the experimental part:
as §1

Data set [10] has as its target osteopontin (OPN, encoded by SPP1) (Homo sapiens, UniProt P10451). Conditions: cited from earlier work.
Data set [11] relates to peptidyl transfer center (PTC) of the ribosome. Conditions: HeLa cells; cited from earlier work.
The subject of data set [12] is glycogen synthase kinase-3β. The note with it: cited from earlier work.

Where two headings read alike, the source gives them in different places. Where only a bound is given, the exact number is not on record here.

glycogen synthase kinase-3β, sequence (P49841 whole entry): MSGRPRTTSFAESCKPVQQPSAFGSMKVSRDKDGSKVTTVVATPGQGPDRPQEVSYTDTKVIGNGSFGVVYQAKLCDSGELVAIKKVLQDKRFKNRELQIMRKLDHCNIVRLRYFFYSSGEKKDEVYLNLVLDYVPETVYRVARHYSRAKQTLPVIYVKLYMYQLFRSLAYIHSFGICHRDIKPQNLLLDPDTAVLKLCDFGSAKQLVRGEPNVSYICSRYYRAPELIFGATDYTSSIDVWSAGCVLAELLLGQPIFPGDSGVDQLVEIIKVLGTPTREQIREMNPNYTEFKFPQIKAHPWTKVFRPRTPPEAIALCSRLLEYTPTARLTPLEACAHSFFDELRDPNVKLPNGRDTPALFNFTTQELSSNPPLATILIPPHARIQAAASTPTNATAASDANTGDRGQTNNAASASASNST
osteopontin (OPN, encoded by SPP1), sequence (P10451 17-314, species assumed): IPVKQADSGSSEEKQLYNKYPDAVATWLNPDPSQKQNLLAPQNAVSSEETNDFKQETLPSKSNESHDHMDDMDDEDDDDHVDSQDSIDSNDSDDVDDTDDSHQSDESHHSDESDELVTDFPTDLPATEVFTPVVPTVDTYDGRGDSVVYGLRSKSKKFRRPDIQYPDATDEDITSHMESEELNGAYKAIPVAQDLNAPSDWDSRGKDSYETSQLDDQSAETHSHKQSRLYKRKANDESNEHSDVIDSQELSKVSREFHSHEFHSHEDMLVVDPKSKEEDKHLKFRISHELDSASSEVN

Consider 7-hydroxy AglA [7-OH AglA], for which the “stability (ring-closed carbinolamine vs ring opened ketopyrrole tautomer)” value in [1] was “instability”; in data set [1] (listed as 7-hydroxy AglA), “unstable”.

Take 13-des-bromo AglA: the “drop in potency compared to AglA” value in data set [2] is approximately 500 X.

As for `CN1C(=O)N[C@H]2[C@@H]3NC(=O)c4cccn4[C@]3(O)C[C@]21O` (racemic) [compound 24, 7-hydroxy-13-des-bromo AglA], in data set [1] (stored in CD3OD or DMSO-d6 at ambient temperature (22° C.) for 7 days), the “stability by 1H NMR” value was “quite stable”. Further, the EC50 at 72 h is more than 250 µM in data set [3] (Caco2 cells, Caco2, 72 h incubation); more than 250 µM in data set [3] (MCF7 cells, MCF7, 72 h incubation); more than 250 µM in data set [3] (MDA-MB-231 cells, MDA-MB-231, 72 h incubation); 171 ± 8 µM in [3] (U87 glioblastoma cells, glioblastoma cell line U87, 72 h incubation).

Consider `O=C1NC2CCCC2(O)n2c(Br)ccc21` (stereo not shown) [18a], for which the “stability of carbinolamine under neutral conditions” value (from here on “stability of carbinolamine”) in [4] is listed as “opened rapidly in CD3OD”.

For `O=C1NC2CCCC2(O)n2cccc21` (stereo not shown) [18b], the “stability of carbinolamine” value in data set [4] is “stable in CD3OD for several days”.

In the case of `O=C1NC2CCCC2(O)n2cc(Br)cc21` (stereo not shown) [18c], in data set [4], the “stability of carbinolamine” value is “stable under neutral conditions”.

For `CO[C@@]12C[C@H]3OC(c4ccc(Br)[nH]4)=N[C@H]3[C@@H]1NC(=O)N2C` [26a], the “cytotoxicity EC50” value in data set [5], in data set [6], in data set [7] and in [8] was “no activity” in each case.

As to `CN1C(=O)N[C@H]2[C@@H]3NC(=O)c4ccc([N+](=O)[O-])n4[C@@H]3C[C@]21O` [compound 37, 13-nitro AglA], the EC50 in data set [9] was in the range of 1.16 to 35.4 µM.

As for Agelastatin A [AglA], in [10], the inhibition of osteopontin result is on record as “inhibition of osteopontin”. Besides, the “binding to the peptidyl transfer center of the ribosome” value in data set [11] is “binds to the peptidyl transfer center (PTC) of the ribosome”. Moreover, in [12], the “inhibition of expression of glycogen synthase kinase-3β” value is given as “inhibits the expression”.
